A word on the IC50: it is the point on the concentration scale where inhibition reaches its midpoint. Lower therefore signals greater potency in that assay.

The target in the assay is T1, Mineralocorticoid receptor (Homo sapiens, UniProt P08235).
T1 sequence (P08235 whole entry): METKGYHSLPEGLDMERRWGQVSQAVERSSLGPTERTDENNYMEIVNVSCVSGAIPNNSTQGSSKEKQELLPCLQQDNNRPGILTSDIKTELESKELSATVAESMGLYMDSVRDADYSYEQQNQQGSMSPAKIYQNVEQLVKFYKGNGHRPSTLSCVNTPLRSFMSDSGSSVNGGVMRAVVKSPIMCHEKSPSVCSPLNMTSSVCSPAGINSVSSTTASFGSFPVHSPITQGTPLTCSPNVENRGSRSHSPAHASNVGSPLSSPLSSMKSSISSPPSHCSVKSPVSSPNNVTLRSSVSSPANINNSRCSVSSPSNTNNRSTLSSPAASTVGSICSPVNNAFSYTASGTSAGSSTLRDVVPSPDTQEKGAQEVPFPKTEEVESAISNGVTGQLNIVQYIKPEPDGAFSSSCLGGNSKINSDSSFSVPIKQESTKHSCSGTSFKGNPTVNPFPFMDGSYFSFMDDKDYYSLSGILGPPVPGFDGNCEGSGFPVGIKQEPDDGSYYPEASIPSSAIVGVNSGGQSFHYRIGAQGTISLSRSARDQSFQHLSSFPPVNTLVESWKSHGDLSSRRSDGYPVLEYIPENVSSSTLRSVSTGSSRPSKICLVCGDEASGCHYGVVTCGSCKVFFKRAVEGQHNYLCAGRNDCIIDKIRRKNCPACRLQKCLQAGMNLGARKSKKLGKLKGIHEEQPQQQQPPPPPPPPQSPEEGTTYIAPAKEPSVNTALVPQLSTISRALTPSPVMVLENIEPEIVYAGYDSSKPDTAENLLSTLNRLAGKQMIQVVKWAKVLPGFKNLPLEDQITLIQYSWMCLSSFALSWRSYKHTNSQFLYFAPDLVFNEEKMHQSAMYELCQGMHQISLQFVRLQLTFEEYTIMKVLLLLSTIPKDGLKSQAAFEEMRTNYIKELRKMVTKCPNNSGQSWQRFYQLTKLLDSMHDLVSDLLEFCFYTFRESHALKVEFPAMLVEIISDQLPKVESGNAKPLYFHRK
Briefly: Fluorescence Polarization Competitive Binding Assay. The source says:
IC50 values shown are means of a single experiment done in duplicate 11-point concentration-effect curves.
In general terms: Fluorescence polarisation rises when a labelled molecule tumbles more slowly, as on binding a larger partner.

The compound `C=CCOC(C)C1=CC(C)(C)Nc2ccc(-c3ccccc3OC)cc21` (stereo unspecified) [6-(2-methoxyphenyl)-2,2-dimethyl-4-[1-(prop-2-en-1-yloxy)ethyl]-1,2-dihydroquinoline] displayed an IC50 of 970 nM.

These data come from BindingDB's records for doi:10.1016/j.bmcl.2007.07.021 (Boehringer Ingelheim Pharmaceuticals, 2007).
